“Also recorded” adds a separate entry of the source.
Columns and labels:
NF-κB = assay: RAW-Blue NF-κB reporter gene assay; format: cell-based, murine; conditions: RAW-Blue macrophages, 0.2, 1 and 5 μM, LPS/IFNγ 10 ng/mL of each
iNOS = format: cell-based, murine; conditions: 5 μM, RAW 264.7 macrophages activated by LPS and IFNγ (10 ng/mL of each)
NO production = assay: nitric oxide; format: cell-based, murine; conditions: RAW 264.7 cells, 0.2, 1 and 5 μM, LPS/IFNγ 10 ng/mL of each
[1] = tested on: lipid peroxidation in RAW 264.7 cells; assay: lipid peroxidation by BODIPY 581/591 C11 staining and FACS in RAW 264.7 cells; format: cell-based, murine; conditions: 5 μM, LPS/IFNγ 10 ng/mL of each, 24 h
RAW 264.7 macrophages = assay: protection of RAW 264.7 macrophages from LPS-induced cytotoxicity; conditions: LPS 100 μg/mL, MTS assay
15-LOX-1 = biological target: T1, 15-LOX-1 (Homo sapiens, UniProt P16050); format: biochemical
T1 sequence (P16050 1-662): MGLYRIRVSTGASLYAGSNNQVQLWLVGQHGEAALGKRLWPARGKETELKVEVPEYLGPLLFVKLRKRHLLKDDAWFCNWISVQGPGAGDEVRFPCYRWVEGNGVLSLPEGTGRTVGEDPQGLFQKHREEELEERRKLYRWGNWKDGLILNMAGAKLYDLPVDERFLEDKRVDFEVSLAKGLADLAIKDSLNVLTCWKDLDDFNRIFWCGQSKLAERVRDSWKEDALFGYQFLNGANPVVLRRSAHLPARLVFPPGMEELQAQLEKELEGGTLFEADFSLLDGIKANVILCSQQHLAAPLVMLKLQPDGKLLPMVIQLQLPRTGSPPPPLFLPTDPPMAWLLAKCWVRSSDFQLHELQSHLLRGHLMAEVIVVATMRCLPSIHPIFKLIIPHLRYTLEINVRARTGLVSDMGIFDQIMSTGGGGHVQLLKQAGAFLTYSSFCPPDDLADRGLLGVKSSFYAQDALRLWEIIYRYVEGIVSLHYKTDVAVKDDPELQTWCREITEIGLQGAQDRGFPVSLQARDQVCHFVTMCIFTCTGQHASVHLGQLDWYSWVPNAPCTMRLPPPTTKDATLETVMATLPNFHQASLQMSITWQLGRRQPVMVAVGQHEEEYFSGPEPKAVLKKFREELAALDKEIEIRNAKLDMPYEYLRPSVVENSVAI

**Q.** With `CCOC(=O)c1[nH]c2cc(Cl)ccc2c1/C=C/C(=O)NCc1ccccc1OC` [Compound 9c, Ethyl (E)-6-Chloro-3-(3-((2-methoxybenzyl)amino)-3-oxoprop-1-en-1-yl)-1H-indole-2-carboxylate] as the molecule, how does the “inhibition of NF-κB transcriptional activation” value (NF-κB) read?
**A.** significant but not complete inhibition

**Q.** What about the “downregulation of iNOS gene expression” value (iNOS) of the same molecule?
**A.** approximately 50%

**Q.** What about the “inhibition of NO production (total nitrate/nitrite)” value (NO production) of the same molecule?
**A.** dose-dependent inhibition

**Q.** And the “effect on the boost of lipid peroxides” value ([1]; listed as 9c (i472))?
**A.** significantly attenuated; also recorded: clear reduction back to baseline levels

**Q.** What about the “effect on viability of LPS-treated RAW 264.7 macrophages, in words” value (“effect on viability” below) (RAW 264.7 macrophages) of the same molecule?
**A.** stronger, dose-dependent effects

**Q.** With `CCCNC(=O)c1[nH]c2cc(Cl)ccc2c1CN(C)C` [Compound 13, 6-Chloro-3-((dimethylamino)methyl)-N-propyl-1H-indole-2-carboxamide] as the molecule, how does the “potency against 15-LOX-1, in words” value (15-LOX-1) read?
**A.** complete loss in potency

**Q.** With `CCOC(=O)c1[nH]c2cc(Cl)ccc2c1C(=O)C[C@@H](C)CCCC(C)C` [Eleftheriadis-14d] as the molecule, how does the “effect on viability” value (RAW 264.7 macrophages) read?
**A.** comparably improved the viability

**Q.** Which “effect on the boost of lipid peroxides” value [1] does the source give for `c1ccc2c(c1)SCc1c-2[nH]c2ccccc12` [PD-146176, reference compound] here?
**A.** significantly attenuated

**Q.** Which “effect on viability” value (RAW 264.7 macrophages) does the source give for `CC(c1cc2ccccc2s1)N(O)C(N)=O` (stereo not drawn) [Zileuton] here?
**A.** comparably improved the viability
